Reference: patent US20100099198A1 (priority 2008, published 2010)

Target: (WT)7 αHL protein pore (Staphylococcus aureus, UniProt P09616)
Conditions: pH 7.5

Chain of (WT)7 αHL protein pore (P09616 27-319 limits assumed): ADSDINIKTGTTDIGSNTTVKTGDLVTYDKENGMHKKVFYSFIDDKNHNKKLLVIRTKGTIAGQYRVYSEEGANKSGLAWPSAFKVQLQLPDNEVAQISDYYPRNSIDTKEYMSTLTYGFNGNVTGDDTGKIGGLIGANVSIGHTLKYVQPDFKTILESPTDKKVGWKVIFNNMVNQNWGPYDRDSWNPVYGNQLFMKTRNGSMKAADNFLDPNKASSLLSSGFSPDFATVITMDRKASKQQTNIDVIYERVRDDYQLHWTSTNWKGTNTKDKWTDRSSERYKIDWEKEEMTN

Substance Y-Y-Y-Y-Y-Y [Y6] has a dwell time of 1.2 ms.
